From patent publication US9464084B2, “P2X7 modulators” (Janssen Pharmaceutica NV, priority 2013, dated 2016)

Experiments:
P2X7 [1] = target: T1, P2X7 (Homo sapiens (Human), UniProt Q99572); test: Ca2+ flux (FLIPR) in 1321N1 cells expressing recombinant human P2X7 channel; type: cell-based; settings: 250 μM BzATP;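 note: Calcium-4 dye-loaded cells exposed to compound for 30 min before agonist addition, fluorescence change read 180 s after agonist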
P2X7 [2] = target: T1, P2X7; test: P2X7 antagonism in human PBMCs (LPS + Bz-ATP induced IL-1β release, ELISA); type: cell-based; settings: LPS 30 ng/ml, Bz-ATP 0.5 mM; for PBMC 10 μM (% control): compound 10 μM; for PBMC 1 μM (% control): compound 1 μM;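 for all read-outs here: PBMCs from donor human blood, with a further 1.5 h incubation of the cells in the assay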
P2X7 [3] = target: T1, P2X7; test: Radioligand binding, tritiated A-804598, human P2X7-1321N1 cell membranes; settings: 1 hour at 4° C.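 Note: ki obtained from the binding IC50 after correction for tracer concentration and tracer affinity.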
Procedure: On the day of the experiment, cell membrane preparations were made according to standard published methods. […] The assay was terminated by filtration (GF/B filters pre-soaked with 0.3% PEI) and washed with washing buffer (Tris-HCl 50 mM). The IC50 generated in the binding assay was corrected for tracer concentration and affinity of the tracer to derive at the affinity (Ki) of the test compounds.

rat P2X7 = rat P2X7 (Rattus norvegicus (Rat), UniProt Q64663); test: Ca2+ flux (FLIPR) in 1321N1 cells expressing recombinant rat P2X7 channel; type: cell-based; settings: 250 μM BzATP;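 note: Calcium-4 dye fluorescence change read 180 s after agonist addition, following 30 min cell preincubation with test compound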
rat P2X7, sequence (Q64663 whole entry): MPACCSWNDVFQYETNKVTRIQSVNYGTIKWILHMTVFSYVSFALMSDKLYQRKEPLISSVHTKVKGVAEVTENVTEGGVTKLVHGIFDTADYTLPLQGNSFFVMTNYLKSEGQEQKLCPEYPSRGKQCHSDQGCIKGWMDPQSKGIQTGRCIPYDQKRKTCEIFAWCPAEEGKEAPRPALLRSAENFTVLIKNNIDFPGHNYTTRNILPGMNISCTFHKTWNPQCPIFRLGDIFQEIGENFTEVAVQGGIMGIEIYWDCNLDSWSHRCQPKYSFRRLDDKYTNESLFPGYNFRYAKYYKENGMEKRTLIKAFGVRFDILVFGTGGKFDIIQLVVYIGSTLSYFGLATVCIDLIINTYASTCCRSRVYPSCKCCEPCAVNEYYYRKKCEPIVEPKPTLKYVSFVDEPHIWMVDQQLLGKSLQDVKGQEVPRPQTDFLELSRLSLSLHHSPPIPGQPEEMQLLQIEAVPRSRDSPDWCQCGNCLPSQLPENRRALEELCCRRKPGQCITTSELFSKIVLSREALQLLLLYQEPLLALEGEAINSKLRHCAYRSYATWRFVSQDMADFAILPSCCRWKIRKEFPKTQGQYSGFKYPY

T1 sequence (Q99572 whole entry): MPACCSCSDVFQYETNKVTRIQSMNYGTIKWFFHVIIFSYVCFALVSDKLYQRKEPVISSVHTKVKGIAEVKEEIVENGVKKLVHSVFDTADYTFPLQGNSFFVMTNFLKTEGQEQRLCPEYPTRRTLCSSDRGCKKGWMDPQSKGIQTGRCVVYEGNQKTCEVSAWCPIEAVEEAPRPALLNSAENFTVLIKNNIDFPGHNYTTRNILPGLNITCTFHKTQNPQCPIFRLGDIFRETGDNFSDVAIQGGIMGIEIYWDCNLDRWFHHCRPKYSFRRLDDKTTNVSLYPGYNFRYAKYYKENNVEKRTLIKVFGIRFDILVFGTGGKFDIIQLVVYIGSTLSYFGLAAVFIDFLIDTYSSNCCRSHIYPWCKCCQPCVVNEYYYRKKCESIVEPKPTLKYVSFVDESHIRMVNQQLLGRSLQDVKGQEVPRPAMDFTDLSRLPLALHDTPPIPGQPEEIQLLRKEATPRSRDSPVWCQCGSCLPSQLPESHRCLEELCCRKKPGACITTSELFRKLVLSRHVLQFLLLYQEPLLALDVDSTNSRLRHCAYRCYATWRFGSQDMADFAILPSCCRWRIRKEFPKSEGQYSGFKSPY

Row | IC50 (P2X7 [1]) | PBMC 10 μM (% control) (P2X7 [2]) | Ki (P2X7 [3]) | IC50 (rat P2X7) | PBMC 1 μM (% control) (P2X7 [2]) | SMILES
1 | 11.3 nM | −8.9 % control | 39.8 nM | 507 nM |  | C[C@H]1c2nnn(-c3cccc(F)n3)c2CCN1C(=O)c1cccc(C(F)(F)F)c1Cl (single isomer, unassigned) [Example 147, (S*)-(2-Chloro-3-(trifluoromethyl)phenyl)(1-(6-fluoropyridin-2-yl)-4-methyl-6,7-dihydro-1H-[1,2,3]triazolo[4,5-c]pyridin-5(4H)-yl)methanone]
2 | 1.1 nM | 11.8 % control | 25.1 nM | 1 nM |  | C[C@H]1Cc2c(nnn2-c2ncccn2)CN1C(=O)c1cccc(C(F)(F)F)c1Cl (single isomer, unassigned) [Example 222, (6S*)-5-{[2-Chloro-3-(trifluoromethyl)phenyl]carbonyl}-6-methyl-1-pyrimidin-2-yl-4,5,6,7-tetrahydro-1H-[1,2,3]triazolo[4,5-c]pyridine]
3 | 7.2 nM | −0.4 % control | 20 nM | 10.2 nM |  | Cc1cccc(-n2nnc3c2CCN(C(=O)c2cccc(C(F)(F)F)c2Cl)[C@H]3C)n1 (single isomer, unassigned) [Example 227, (S*)-(2-chloro-3-(trifluoromethyl)phenyl)(4-methyl-1-(6-methylpyridin-2-yl)-6,7-dihydro-1H-[1,2,3]triazolo[4,5-c]pyridin-5(4H)-yl)methanone]
4 | 3.3 nM | −3.7 % control | 5.9 nM | 11.1 nM |  | C[C@@H]1c2nnn(-c3ncccn3)c2CCN1C(=O)c1cccc(C(F)(F)F)c1F (single isomer, unassigned) [Example 271, (R*)-(2-fluoro-3-(trifluoromethyl)phenyl)(4-methyl-1-(pyrimidin-2-yl)-6,7-dihydro-1H-[1,2,3]triazolo[4,5-c]pyridin-5(4H)-yl)methanone]
5 | 18.4 nM |  | 87.1 nM | 1940 nM | 7.9 % control | O=C(c1cccc(C(F)(F)F)c1Cl)N1CCc2c(ncn2-c2ccccc2)C1 [Example 2, (2-Chloro-3-(trifluoromethyl)phenyl)(1-phenyl-6,7-dihydro-1H-imidazo[4,5-c]pyridin-5(4H)-yl)methanone]
6 | 46.5 nM | −3.7 % control | 25.1 nM | 2570 nM |  | O=C(c1cccc(Cl)c1Cl)N1CCc2c(ncn2-c2ccccn2)C1 [Example 4, (2,3-Dichlorophenyl)(1-(pyridin-2-yl)-6,7-dihydro-1H-imidazo[4,5-c]pyridin-5(4H)-yl)methanone]
7 | 12.4 nM | 11.6 % control | 31.6 nM | 324 nM |  | O=C(c1cccc(C(F)(F)F)c1Cl)N1CCc2c(ncn2-c2ccn[nH]2)C1 [Example 5, (1-(1H-Pyrazol-5-yl)-6,7-dihydro-1H-imidazo[4,5-c]pyridin-5(4H)-yl)(2-chloro-3-(trifluoromethyl)phenyl)methanone]
8 | 55.7 nM | 8.4 % control | 100 nM |  |  | O=C(c1cccc(Cl)c1Cl)N1CCc2c(ncn2-c2ccn[nH]2)C1 [Example 60, 5-[(2,3-Dichlorophenyl)carbonyl]-1-(1H-pyrazol-5-yl)-4,5,6,7-tetrahydro-1H-imidazo[4,5-c]pyridine]
9 | 14.3 nM | −9.2 % control | 31.6 nM |  |  | O=C(c1cccc(C(F)(F)F)c1Cl)N1CCc2c(nnn2-c2ncc(F)cn2)C1 [Example 64, 5-{[2-Chloro-3-(trifluoromethyl)phenyl]carbonyl}-1-(5-fluoropyrimidin-2-yl)-4,5,6,7-tetrahydro-1H-[1,2,3]triazolo[4,5-c]pyridine]
10 | 392 nM |  | 275 nM |  | 56.0 % control | Cn1nc(-c2ccccc2)c2c1CN(C(=O)c1cccc(Cl)c1Cl)CC2 [Example 103, 6-[(2,3-Dichlorophenyl)carbonyl]-1-methyl-3-phenyl-4,5,6,7-tetrahydro-1H-pyrazolo[3,4-c]pyridine]
11 | 10 nM |  | 182 nM |  | −15.1 % control | O=C(c1cccc(C(F)(F)F)c1Cl)N1CCc2c(-c3ccc(F)cc3)n[nH]c2C1 [Example 110, 6-{[2-Chloro-3-(trifluoromethyl)phenyl]carbonyl}-3-(4-fluorophenyl)-4,5,6,7-tetrahydro-2H-pyrazolo[3,4-c]pyridine]
12 | 85.5 nM |  | 93.3 nM |  | 71.7 % control | O=C(c1cccc(C(F)(F)F)c1Cl)N1CCc2c(nnn2-c2ccccc2OCCF)C1 [Example 126, (2-Chloro-3-(trifluoromethyl)phenyl)(1-(2-(2-fluoroethoxy)phenyl)-6,7-dihydro-1H-[1,2,3]triazolo[4,5-c]pyridin-5(4H)-yl)methanone]
13 | 48.2 nM | 1.7 % control | 100 nM |  |  | O=C(c1cccc(C(F)(F)F)c1Cl)N1CCc2c(nnn2-c2cccc(F)n2)C1 [Example 135, (2-Chloro-3-(trifluoromethyl)phenyl)(1-(6-fluoropyridin-2-yl)-6,7-dihydro-1H-[1,2,3]triazolo[4,5-c]pyridin-5(4H)-yl)methanone]
14 | 8 nM | 7.3 % control | 31.6 nM |  |  | CC1Cc2c(nnn2-c2cc(F)ccn2)CN1C(=O)c1cccc(C(F)(F)F)c1Cl (stereo not shown) [Example 176, (2-Chloro-3-(trifluoromethyl)phenyl)(1-(4-fluoropyridin-2-yl)-6-methyl-6,7-dihydro-1H-[1,2,3]triazolo[4,5-c]pyridin-5(4H)-yl)methanone]
15 | 8.6 nM | −1.3 % control | 39.8 nM |  |  | CC1c2nnn(-c3ncco3)c2CCN1C(=O)c1cccc(C(F)(F)F)c1Cl (stereo not shown) [Example 250]
16 | 19.4 nM | −3.1 % control | 36.3 nM |  |  | CC1c2ncn(-c3ccc(F)cn3)c2CCN1C(=O)c1ccc(F)c(Cl)c1Cl (stereo not shown) [Example 261, (2,3-dichloro-4-fluorophenyl)(1-(5-fluoropyridin-2-yl)-4-methyl-6,7-dihydro-1H-imidazo[4,5-c]pyridin-5(4H)-yl)methanone]
17 | 16.1 nM | −1.6 % control | 55 nM |  |  | Cc1c(C(=O)N2CCc3c(ncn3-c3ccc(F)cn3)C2C)cccc1C(F)(F)F (stereo not shown) [Example 263, (1-(5-fluoropyridin-2-yl)-4-methyl-6,7-dihydro-1H-imidazo[4,5-c]pyridin-5(4H)-yl)(2-methyl-3-(trifluoromethyl)phenyl)methanone]
18 | 157 nM | 9.5 % control | 39.8 nM |  |  | Cc1c(C(=O)N2CCc3c(ncn3-c3ccc(F)cn3)C2)cccc1C(F)(F)F [Example 312, (1-(5-fluoropyridin-2-yl)-6,7-dihydro-1H-imidazo[4,5-c]pyridin-5(4H)-yl)(2-methyl-3-(trifluoromethyl)phenyl)methanone]
19 | 148 nM | −11.0 % control | 178 nM |  |  | Cc1nc2c(n1-c1ccccc1)CCN(C(=O)c1cccc(Cl)c1Cl)C2 [Example 331, (2,3-dichlorophenyl)(2-methyl-1-phenyl-6,7-dihydro-1H-imidazo[4,5-c]pyridin-5(4H)-yl)methanone]
